From PubChem BioAssay AID1598 come the findings set out here.

Results filed as inconclusive are left out.

Broadly, the EC50 is the concentration needed to bring the measured effect to its halfway point.

The test system of the assay is SMN2 vs SMN1 luciferase splicing reporter cells. Description: enhancers of SMN2 over SMN1 splicing, cell-based, SMN2/SMN1 luciferase reporters (AID 1598). The settings on record: measured here: SMN luciferase EC50 follow-up.

For `O=C1C=C2C(=CCOC2O)O1` (configuration not stated), the EC50 is 5 µM.
With `NC12CC3CC(CC(C3)C1)C2`, the EC50 was 0.4 µM.
On to `CC[C@@]1(O)C(=O)OCc2c1cc1n(c2=O)Cc2cc3ccccc3nc2-1`, for which the EC50 came to 2.5 µM.
On to `CO[C@@]1(NC(=O)Cc2cccs2)C(=O)N2C(C(=O)O)=C(COC(N)=O)CS[C@@H]21`, for which the EC50 came out at 2.5 µM.
The figure for `CC[C@@]1(O)C[C@H](OC2CC(N(C)C)C(OC3CC(O)C(OC4CCC(=O)C(C)O4)C(C)O3)C(C)O2)c2c(cc3c(c2O)C(=O)c2c(O)cccc2C3=O)[C@H]1C(=O)OC` (some centres not stated) is 7 µM.
On to `CC(C(=O)O)c1ccc(N2Cc3ccccc3C2=O)cc1` (configuration not stated), for which the 50% effective concentration (EC50) is 0.6 µM.
Take `O[N+]1=CC=CCC1=S.On1ccccc1=S.[Zn]`: the EC50 stood at 1.25 µM.
